{"source": "patent US20250170284A1", "about": "“Hydroxamic Acid Macrocyclic Agents With Pendant Chelating Moieties And Complexes Thereof” (LUMIPHORE, INC., priority 2022, published 2025)", "origin": "cited, not measured here", "settings": "complex formation of the ligand with thorium(IV)"}
{"substance": "diethylenetriamine pentaacetic acid [DTPA]", "values": [{"measurement": "Log K1", "value": 30.34}]}
